Reference: patent US5681588A, “Delayed release microtablet of β-phenylpropiophenone derivatives” (priority 1993, dated 1997)
Structures can show the parent of a compound that is named as a salt.

Experiment: Release of other medicinal substances from the same preparation
Type: physicochemical
Settings: in 1 hour

| Compound | release from the same preparation [%] |
| --- | --- |
| CN/C(=N/CCSCc1nc[nH]c1C)NC#N [cimetidine hydrochloride] | 90 |
| CC(=O)Nc1ccc(O)cc1 [paracetamol] | 90 |
